# Test results from patent publication US7772177B2, “BIR domain binding compounds” (Aegera Therapeutics, Inc., priority 2005, dated 2010).
# How the values were obtained:
# GST-HIAP1(cIAP-2) BIR 3 = biological target: T1, GST-HIAP1(cIAP-2) BIR 3 (Homo sapiens, UniProt Q13489); assay: Fluorescence polarization-based competition assay, cIAP-2 Bir3; type: binding
# T1 construct: made in house; host or cells: E. coli DH5-alpha
# Protocol: GST-HIAP1(cIAP-2) BIR 3: HIAP1 coding sequence from amino acids 236-349, cloned into PGex4T3 via BamH1 and XhoI. The plasmid was transformed into E. coli DH5α for use in protein expression and purification.
# (§1) A fluorescent peptide probe, Fmoc-Ala-Val-Pro-Phe-Tyr(t-Bu)-Leu-Pro-Gly(t-Bu)-Gly-OH was prepared using standard Fmoc chemistry on 2-chlorotrityl chloride resin (Int. J. Pept. Prot. Res. 38:555-561, 1991). Cleavage from the resin was performed using 20% acetic acid in dichloromethane (DCM), which left the side chain still blocked. The C-terminal protected carboxylic acid was coupled to 4′-(aminomethyl)fluorescein (Molecular Probes, A-1351; Eugene, Oreg.) using excess diisopropylcarbodiimide (DIC) in dimethylformamide (DMF) at room temperature and was purified by silica gel chromatography (10% methanol in DCM). The N-terminal Fmoc protecting group was removed using piperidine (20%) in DMF, and purified by silica gel chromatography (20% methanol in DCM, 0.5% HOAc). Finally, the t-butyl side chain protective groups were removed using 95% trifluoroacetic acid containing 2.5% water and 2.5% triisopropyl silane. […] Compound #174 was also used as a fluorescent probe in this assay.
# (§2) For all assays, the fluorescence and fluorescence-polarization was evaluated using a Tecan Polarion instrument with the excitation filter set at 485 nm and the emission filter set at 535 nm. For each assay, the concentration of the target protein was first establish by titration of the selected protein in order to produce a linear dose-response signal when incubated alone in the presence of the fluorescent probe. Upon establishing these conditions, the compounds potency (IC50) and selectivity, was assessed in the presence of a fix defined-amount of target protein and fluorescent probe and a 10 point serial dilution of the selected compounds. For each IC50 curve, the assays were run as followed: 25 ul/well of diluted compound in 50 mM MES buffer pH 6.5 were added into a black 96 well plate then 25 ul/well of bovine serum albumin (BSA) at 0.5 mg/ml in 50 mM MES pH 6.5. Auto-fluorescence for each compound was first assessed by performing a reading of the compound/BSA solution alone. Then 25 ul of the fluorescein probe diluted into 50 mM MES containing 0.05 mg/ml BSA were added and a reading to detect quenching of fluorescein signal done. Finally 25 ul/well of the target or control protein (GST-BIRs) diluted at the appropriate concentration in 50 mM MES containing 0.05 mg/ml BSA were added and the fluorescence polarization evaluated.
# (§3) For each assay the relative polarization-fluorescence units were plotted against the final concentrations of compound and the IC50 calculated using the Grad pad prism software and/or Cambridge soft. The ki value were derived from the calculated IC50 value as described above and according to the equation described in Nikolovska-Coleska, Z. (2004) Anal Biochem 332, 261-273.
# (§4) Compounds exemplified in Table 6 were tested and found to have IC50s in the following ranges: A: >10 μM; B: <10 μM; C: <1 μM using the fluorescence polarization assay, as shown in Table 5. Each of the IC50s was calculated from Graph Pad.
# [1] = biological target: T2, caspase-3 inhibited by linker BIR2-BIR3-RING of XIAP (Homo sapiens, UniProt P98170); assay: Caspase-3 linker-BIR2-BIR3-RING derepression assay; type: biochemical
# T2 construct: made in house; host or cells: E. coli DH5-alpha (GST-XIAP); E. coli AD494 (His-caspase-3)
# T2 sequence (P98170 93-497): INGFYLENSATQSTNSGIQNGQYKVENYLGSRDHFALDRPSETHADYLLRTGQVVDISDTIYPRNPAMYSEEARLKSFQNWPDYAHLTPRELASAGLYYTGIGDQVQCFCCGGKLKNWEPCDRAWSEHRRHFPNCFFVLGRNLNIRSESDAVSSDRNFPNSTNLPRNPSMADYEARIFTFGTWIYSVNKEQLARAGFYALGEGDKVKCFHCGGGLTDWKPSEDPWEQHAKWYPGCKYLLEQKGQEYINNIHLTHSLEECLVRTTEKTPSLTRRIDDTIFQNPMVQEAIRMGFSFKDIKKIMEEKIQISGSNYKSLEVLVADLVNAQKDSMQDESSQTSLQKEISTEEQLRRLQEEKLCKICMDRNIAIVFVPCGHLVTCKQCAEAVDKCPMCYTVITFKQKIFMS
# Protocol: In order to determine the relative activity of the selected compound against BIR2, an in vitro assay was used where caspase-3 was inhibited by linker-BIR2 or linker BIR2-BIR3-RING of XIAP. Briefly, 1.5 ul of the enzyme, 0.25 uM to 2 uM of GST-Xiap fusion protein (GST-linker BIR2, GST-linker BIR2BIR3RING) were co-incubated with serial dilutions of compound (80 uM-0.04 uM). Caspase 3 activity was measured by overlaying 25 ul of a 0.4 mM DEVD-AMC solution. Final reaction volume was 100 ul. All dilutions were performed in caspase buffer (50 mM Hepes pH 7.4, 100 mM NaCl, 10% sucrose, 1 mM EDTA, 10 mM DTT, 0.1% CHAPS (Stennicke, H. R., and Salvesen, G. S. (1997). Biochemical characteristics of caspase-3, -6, -7, and -8. J. Biol. Chem. 272, 25719-25723)).
# The fluorescent AMC released from the caspase-3 hydrolysis of the substrate was measured in a TECAN spectrophotometer at 360 nm excitation and 444 nm emission, on a kinetic cycle of 30 minutes with readings taken every 2 minutes. Caspase activity was calculated as Vo of AMC fluorescence/sec. Caspase de-repression by our compounds were compared to caspase-3 alone and caspase 3 repressed by the presence of XIAP fusion protein.
# (§5) Results: Compounds were also tested in the apoptosome assay and the linker-BIR2/caspase-3 inhibition assay and found to have IC50s in the following ranges: A: >10 μM; B: <10 μM; C: <1 μM, as shown in Table 7.
# GST-XIAP BIR3RING = biological target: T3, GST-XIAP BIR3RING (Homo sapiens, UniProt P98170); assay: Fluorescence polarization-based competition assay, XIAP Bir3-RING; type: binding
# T3 construct: made in house; host or cells: E. coli DH5-alpha
# T3 sequence (P98170 246-497): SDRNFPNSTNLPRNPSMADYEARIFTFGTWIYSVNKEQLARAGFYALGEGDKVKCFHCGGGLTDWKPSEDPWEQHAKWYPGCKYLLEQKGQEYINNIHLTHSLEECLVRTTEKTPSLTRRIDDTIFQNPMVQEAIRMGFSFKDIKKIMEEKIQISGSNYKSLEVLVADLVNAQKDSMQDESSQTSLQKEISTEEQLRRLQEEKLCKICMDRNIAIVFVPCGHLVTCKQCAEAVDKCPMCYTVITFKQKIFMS
# Protocol: GST-XIAP BIR3RING: XIAP coding sequence amino acids 246-497 cloned into PGEX2T1 via BamH1 and AVA I. The plasmid was transformed into E. coli DH5α for use in protein expression and purification.
# as §1, §2, §3, §4
# [2] = biological target: T4, XIAP Bir3-RING (GST-BIR 3RING) (Homo sapiens, UniProt P98170); assay: Caspase de-repression assay using cellular extracts (apoptosome), XIAP Bir3-RING; type: biochemical; settings: 293 cell S100 extract
# T4 construct: made in house; host or cells: E. coli DH5-alpha
# T4 sequence (P98170 246-497): as above
# Protocol: (§6) 100 ug of 293 cell S100 extract and 0.25 uM-2 uM of GST-Xiap fusion protein (GST-BIR 3RING, GST-linker BIR2 BIR3RING) were co-incubated with serial dilutions of compound (0.02 uM-40 uM). Extracts were activated by adding 1 mM dATP, 0.1 mM ALLN, 133 ug Cytochrome C (final concentrations), and incubating at 37° C. for 25 minutes. All reactions and dilutions used S100 buffer (50 mM Pipes pH 7.0, 50 mM KCl, 0.5 mM EGTA pH 8.0, 2 mM MgCl2 supplemented with 1/1000 dilutions of 2 mg/ml Cytochalisin B, 2, mg/ml Chymotstatin, Leupeptin, Pepstatin, Antipain, 0.1M PMSF, 1M DTT). Final reaction volume was 30 ul. Caspase-3 activity was measured by overlaying 30 ul of a 0.4 mM DEVD-AMC solution. AMC cleavage was measured in a TECAN spectrophotometer at 360 nm excitation and 444 nm emission, on a kinetic cycle of 1 hour with readings taken every 5 minutes. Caspase activity was calculated as Vo of AMC fluorescence/sec. Caspase de-repression by our compounds were compared to fully activated extract and activated extract repressed by the presence of XIAP fusion protein.
# as §5
# GST-HIAP2 (cIAP-1) BIR 3 = biological target: T5, GST-HIAP2 (cIAP-1) BIR 3 (Homo sapiens, UniProt Q13490); assay: Fluorescence polarization-based competition assay, cIAP-1 Bir3; type: binding
# T5 construct: made in house; host or cells: E. coli DH5-alpha
# T5 sequence (Q13490 251-363): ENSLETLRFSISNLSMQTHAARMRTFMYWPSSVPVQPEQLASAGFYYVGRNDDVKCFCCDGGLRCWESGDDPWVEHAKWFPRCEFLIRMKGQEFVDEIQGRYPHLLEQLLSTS
# Protocol: GST-HIAP2 (cIAP-1) BIR 3: HIAP2 coding sequence from amino acids 251-363 cloned into PGex4T3 via BamH1 and XhoI. The plasmid was transformed into E. coli DH5α for use in protein expression and purification.
# as §1, §2, §3, §4
# [3] = biological target: T6, XIAP Bir2-Bir3-RING (GST-linker BIR2 BIR3RING) (Homo sapiens, UniProt P98170); assay: Caspase de-repression assay using cellular extracts (apoptosome), XIAP Bir2-Bir3-RING; type: biochemical; settings: 293 cell S100 extract
# T6 construct: made in house; host or cells: E. coli DH5-alpha
# T6 sequence (P98170 93-497): as the sequence (P98170 93-497) above
# Protocol: as §6, §5
# T1 sequence (Q13489 236-349): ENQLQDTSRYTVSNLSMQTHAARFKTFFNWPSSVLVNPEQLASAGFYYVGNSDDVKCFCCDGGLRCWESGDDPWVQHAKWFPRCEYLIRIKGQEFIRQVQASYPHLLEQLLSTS
SMILES,IC50 (GST-HIAP1(cIAP-2) BIR 3) [nM],IC50 [1] [nM],IC50 (GST-XIAP BIR3RING) [nM],IC50 [2] [nM],IC50 (GST-HIAP2 (cIAP-1) BIR 3) [nM],IC50 [3] [nM]
CC(C)[C@H](NC(=O)[C@H](C)N)C(=O)N1CCC[C@H]1CN(CCc1ccccc1)C(=O)c1ccccc1 [Compound 24],< 1000,> 10000,< 1000,< 1000,< 1000,
CCCC(=O)N(CCc1ccccc1)C[C@@H]1CCCN1C(=O)[C@@H](NC(=O)[C@H](C)N)C(C)C [Compound 22],< 1000,> 10000,< 1000,< 1000,< 1000,> 10000
CN[C@@H](C)C(=O)N[C@H](C(=O)N1CCC[C@H]1CN(CCc1ccccc1)C(=O)C(F)(F)F)C(C)(C)C [Compound 10],< 1000,> 10000,< 1000,< 10000,< 1000,> 10000
CC[C@H](N)C(=O)N[C@H](C(=O)N1CCC[C@H]1CN(CCc1ccccc1)C(C)=O)C(C)C [Compound 5],< 1000,< 10000,< 10000,< 1000,< 1000,> 10000
CC[C@H](N)C(=O)N[C@H](C(=O)N1CCC[C@H]1CNC(=O)Cc1ccccc1)C(C)C [Compound 14],> 10000,> 10000,> 10000,< 10000,> 10000,> 10000
CN[C@@H](C)C(=O)N[C@H](C(=O)N1CCC[C@H]1CN(CCc1ccccc1)C(=O)CCN)C(C)(C)C [Compound 33],< 1000,> 10000,< 1000,< 1000,< 1000,
CN[C@@H](C)C(=O)N[C@H](C(=O)N1CCC[C@H]1CN(CCc1ccccc1)C(=O)CCC(=O)O)C(C)(C)C [Compound 35],< 1000,> 10000,< 1000,< 1000,< 1000,
CC[C@H](N)C(=O)N[C@H](C(=O)N1CCC[C@H]1CN(C(C)=O)[C@H](C)c1ccccc1)C(C)C [Compound 7],,> 10000,> 10000,< 1000,,
CN[C@@H](C)C(=O)N[C@H](C(=O)N1CCC[C@H]1CN(CCc1ccccc1)C(=O)CN)C(C)(C)C [Compound 32],< 1000,> 10000,< 1000,< 1000,< 1000,

# More lines, now with the values ahead:
IC50 (GST-HIAP1(cIAP-2) BIR 3) [nM],IC50 [1] [nM],IC50 (GST-XIAP BIR3RING) [nM],IC50 [2] [nM],IC50 (GST-HIAP2 (cIAP-1) BIR 3) [nM],IC50 [3] [nM],SMILES
< 1000,> 10000,< 1000,< 1000,< 1000,,CNCC(=O)N(CCc1ccccc1)C[C@@H]1CCCN1C(=O)[C@@H](NC(=O)[C@H](C)NC)C(C)(C)C [Compound 34]
> 10000,> 10000,> 10000,< 1000,> 10000,< 10000,CC[C@H](N)C(=O)N[C@H](C(=O)N1CCC[C@H]1CN([C@H](C)c1ccccc1)S(C)(=O)=O)C(C)C [Compound 6]
< 1000,> 10000,< 1000,< 1000,< 1000,> 10000,CC(C)[C@H](NC(=O)[C@H](C)N)C(=O)N1CCC[C@H]1CN(CCc1ccccc1)C(=O)Cc1ccccc1 [Compound 23]
< 1000,> 10000,< 1000,> 10000,< 1000,,CN[C@@H](C)C(=O)N[C@H](C(=O)N1CCC[C@H]1CN(CCc1ccccc1)C(=O)OCc1ccccc1)C(C)(C)C [Compound 26]
< 10000,,< 10000,> 10000,< 10000,> 10000,CC[C@H](N)C(=O)N[C@H](C(=O)N1CCC[C@H]1CNCCc1ccccc1)C(C)C [Compound 2]
< 1000,> 10000,< 1000,< 1000,< 1000,,CC(C)[C@H](NC(=O)[C@H](C)N)C(=O)N1CCC[C@H]1CN(CCc1ccccc1)C(=O)COc1ccccc1 [Compound 28]
< 1000,> 10000,< 10000,< 1000,< 1000,,COCC(=O)N(CCc1ccccc1)C[C@@H]1CCCN1C(=O)[C@@H](NC(=O)[C@H](C)N)C(C)C [Compound 25]
